From ChEMBL document CHEMBL1770065, “Discovery of a clinical candidate from the structurally unique dioxa-bicyclo[3.2.1]octane class of sodium-dependent glucose cotransporter 2 inhibitors” (J Med Chem, 2011)

Tests used:
[1] = Volume of distribution at steady state in Sprague-Dawley rat at 2 mg/kg, iv; assay type: ADME, organism-based; design: dose 2 mg/kg, route intravenous; conditions: in vivo, read-out: Vdss
[2] = biological target: T1, Organic anion transporter 3 (Homo sapiens, UniProt Q8TCC7); assay: Inhibition of human OAT3
T1 sequence (Q8TCC7 whole entry): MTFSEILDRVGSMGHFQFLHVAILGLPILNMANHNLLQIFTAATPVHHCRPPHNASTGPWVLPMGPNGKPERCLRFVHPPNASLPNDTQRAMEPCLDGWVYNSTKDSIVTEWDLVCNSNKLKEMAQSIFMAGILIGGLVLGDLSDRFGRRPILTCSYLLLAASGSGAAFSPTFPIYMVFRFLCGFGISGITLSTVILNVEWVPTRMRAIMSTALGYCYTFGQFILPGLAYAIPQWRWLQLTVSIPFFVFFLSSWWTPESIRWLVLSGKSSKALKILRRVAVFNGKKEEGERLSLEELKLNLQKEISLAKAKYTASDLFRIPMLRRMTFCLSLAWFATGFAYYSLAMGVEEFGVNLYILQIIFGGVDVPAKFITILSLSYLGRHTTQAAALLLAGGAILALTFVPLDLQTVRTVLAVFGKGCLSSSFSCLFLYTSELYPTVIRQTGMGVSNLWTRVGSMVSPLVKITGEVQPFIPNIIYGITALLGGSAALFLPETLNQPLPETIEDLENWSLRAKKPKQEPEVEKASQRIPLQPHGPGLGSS

[3] = biological target: T2, Sodium/glucose cotransporter 2 (Rattus norvegicus, UniProt P53792); assay: Inhibition of rat SGLT2
T2 sequence (P53792 whole entry): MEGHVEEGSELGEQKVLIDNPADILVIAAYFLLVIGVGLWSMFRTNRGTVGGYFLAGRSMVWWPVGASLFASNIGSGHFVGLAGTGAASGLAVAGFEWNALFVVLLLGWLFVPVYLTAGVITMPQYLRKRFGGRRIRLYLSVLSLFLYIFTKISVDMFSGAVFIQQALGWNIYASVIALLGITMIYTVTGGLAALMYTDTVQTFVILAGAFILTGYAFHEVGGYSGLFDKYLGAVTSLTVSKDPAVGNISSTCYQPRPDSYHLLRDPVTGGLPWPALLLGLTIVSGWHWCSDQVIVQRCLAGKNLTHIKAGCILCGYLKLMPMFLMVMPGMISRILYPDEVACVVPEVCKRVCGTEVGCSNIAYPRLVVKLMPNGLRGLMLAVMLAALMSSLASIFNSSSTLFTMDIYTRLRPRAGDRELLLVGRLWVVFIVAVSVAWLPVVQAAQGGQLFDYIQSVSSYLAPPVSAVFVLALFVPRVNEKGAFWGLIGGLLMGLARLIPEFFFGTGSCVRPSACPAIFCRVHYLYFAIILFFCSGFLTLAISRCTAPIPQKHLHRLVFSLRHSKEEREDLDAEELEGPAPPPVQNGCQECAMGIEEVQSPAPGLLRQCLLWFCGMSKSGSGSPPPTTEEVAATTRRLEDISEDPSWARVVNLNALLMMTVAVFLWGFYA

[4] = biological target: T3, Solute carrier family 22 member 2 (Homo sapiens, UniProt O15244); assay: Inhibition of human OCT2
T3 sequence (O15244 whole entry): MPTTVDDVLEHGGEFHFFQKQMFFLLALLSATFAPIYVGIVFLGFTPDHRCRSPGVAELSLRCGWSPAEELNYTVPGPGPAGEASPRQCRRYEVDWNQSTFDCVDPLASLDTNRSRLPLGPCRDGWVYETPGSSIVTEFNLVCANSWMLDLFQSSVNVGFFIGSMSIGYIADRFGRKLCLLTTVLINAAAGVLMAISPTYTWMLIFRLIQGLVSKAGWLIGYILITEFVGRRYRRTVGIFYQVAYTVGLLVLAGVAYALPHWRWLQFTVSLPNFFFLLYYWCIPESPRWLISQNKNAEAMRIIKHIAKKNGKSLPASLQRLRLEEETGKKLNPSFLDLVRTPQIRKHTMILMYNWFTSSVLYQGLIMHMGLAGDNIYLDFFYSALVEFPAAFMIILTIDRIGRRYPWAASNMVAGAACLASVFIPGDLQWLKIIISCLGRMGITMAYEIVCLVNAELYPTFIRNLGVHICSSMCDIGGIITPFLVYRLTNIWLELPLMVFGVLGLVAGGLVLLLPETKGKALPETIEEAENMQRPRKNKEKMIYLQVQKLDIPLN

[5] = Apparent intrinsic clearance in human hepatocytes assessed per million of cells; assay type: ADME, cell-based, Liver, Hepatocyte
[6] = biological target: T4, Solute carrier family 22 member 2 (Rattus norvegicus, UniProt Q9R0W2); assay: Inhibition of rat OCT2 expressed in HEK293 cells; assay type: cell-based
T4 sequence (Q9R0W2 whole entry): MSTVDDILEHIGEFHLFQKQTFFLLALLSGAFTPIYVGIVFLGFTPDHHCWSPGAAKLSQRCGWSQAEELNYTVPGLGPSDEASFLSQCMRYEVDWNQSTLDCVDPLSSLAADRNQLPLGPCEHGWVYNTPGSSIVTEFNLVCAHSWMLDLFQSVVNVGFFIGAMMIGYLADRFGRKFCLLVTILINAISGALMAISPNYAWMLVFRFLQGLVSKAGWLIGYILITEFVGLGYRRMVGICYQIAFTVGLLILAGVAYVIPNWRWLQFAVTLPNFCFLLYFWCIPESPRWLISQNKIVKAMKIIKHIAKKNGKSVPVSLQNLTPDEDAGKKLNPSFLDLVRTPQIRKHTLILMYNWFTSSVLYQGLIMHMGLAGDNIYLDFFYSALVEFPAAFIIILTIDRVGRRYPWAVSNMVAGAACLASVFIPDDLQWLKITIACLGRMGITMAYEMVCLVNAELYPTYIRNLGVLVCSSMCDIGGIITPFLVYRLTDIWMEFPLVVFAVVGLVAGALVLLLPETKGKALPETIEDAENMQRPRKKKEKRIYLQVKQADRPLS

[7] = Oral bioavailability in Sprague-Dawley rat at 5 mg/kg; assay type: ADME, organism-based; conditions: in vivo
[8] = Cmax in Sprague-Dawley rat at 5 mg/kg, po; assay type: ADME, organism-based; design: dose 5 mg/kg, route oral; conditions: in vivo
Plasma [9] = assay: Fraction unbound in rat plasma at 1000 ng/mL by equilibrium dialysis method; assay type: ADME, cell-free
[10] = Apparent intrinsic clearance in human liver microsomes assessed per mg of protein; assay type: ADME, Microsome
Plasma [11] = assay: Fraction unbound in human plasma at 1000 ng/mL by equilibrium dialysis method; assay type: ADME, cell-free
[12] = Lipophilicity, log D of the compound; assay type: physicochemical; conditions: octanol/water
Rattus norvegicus [13] = assay: Antidiabetic activity in po dosed Sprague-Dawley rat assessed as increase of urinary glucose excretion after 24 hrs; assay type: functional, organism-based; conditions: Urine
Rattus norvegicus [14] = assay: Average free plasma concentration in Sprague-Dawley rat at 30 mg/kg, po after 24 hrs; assay type: ADME, organism-based; design: dose 30 mg/kg, route oral; conditions: in vivo
Rattus norvegicus [15] = assay: Inhibition of SGLT2 in po dosed Sprague-Dawley rat after 24 hrs; assay type: functional, organism-based
Rattus norvegicus [16] = assay: Antidiabetic activity in Sprague-Dawley rat assessed as increase of urinary glucose excretion assessed per 200 gram of body weight at 30 mg/kg, po after 24 hrs; assay type: functional, Urine
[17] = Tmax in Sprague-Dawley rat at 5 mg/kg, po; assay type: ADME, organism-based; design: dose 5 mg/kg, route oral; conditions: in vivo
Rattus norvegicus [18] = assay: fAUC (0 to 24 hrs) in Sprague-Dawley rat at 30 mg/kg, po after 24 hrs; assay type: ADME, organism-based; design: dose 30 mg/kg, route oral; conditions: in vivo

Vd [1]: 1.13 L/kg | inhibition (INH) [2]: Not Active | IC50 [3]: 1.15 nM | inhibition (INH) [4]: Not Active | hepatocyte CLint [5]: 4.5 µL/min/1e6 cells | inhibition (INH) [6]: Not Active | bioavailability [7]: 69% | Cmax [8]: 1940 ng/mL | Fu (Plasma [9]): 4% | microsomal CLint [10]: 12 µL/min/mg | Fu (Plasma [11]): 6.4% | logD [12]: 3.6 | Cp (Rattus norvegicus [14]): 408 nM | IC50 (Rattus norvegicus [15]): 1.8 nM | Tmax [17]: 1 h | fAUC (Rattus norvegicus [18]): 4280 ng·h/mL
Structure (SMILES): CCOc1ccc(Cc2cc([C@]34OC[C@](CO)(O3)[C@@H](O)[C@H](O)[C@H]4O)ccc2Cl)cc1 [ERTUGLIFLOZIN]
Activity (Rattus norvegicus [13]): Dose-dependent effect | Activity (Rattus norvegicus [16]): 2554 mg
